From US5112866A, “Ethanesulfonamide derivatives” (Ortho Pharmaceutical Corporation, priority 1989, dated 1992)
Structures can show the parent of a compound that is named as a salt. Where two headings read alike, the source gives them in different places.

Legend:
[1] = system: Rabbit Isolated Parietal Cells; assay: Inhibition of 14C-aminopyrine accumulation in stimulated rabbit isolated parietal cells; format: cell-based; conditions: Oryctolagus cuniculus, 37° C.
Excerpt: Pharmacology of the Ethanesulfonamide Compounds - Rabbit Isolated Parietal Cells
Parietal cells were isolated from the fundic mucosa of rabbit stomachs by a four-stage collagenase digestion Process. The supernatant fraction from the last two stages of this Process contained the individual parietal cells. This cell suspension was centrifuged and reconstituted in a modified Hank's buffer to contain 2-3×10^6 cells/ml. […] The accumulation is stimulated by histamine and is blocked by H2 antagonists. Accumulation of ^14 C-AP is also stimulated by dibutyryl cAMP (dbcAMP). The cells were incubated with 0.5×10^6 cpm ^14 C-AP, with various concentrations of histamine or dbcAMP, […] isobutylmethylxanthine, and test compound added in a 20 μl volume of buffer or dimethylsulfoxide. The flasks were incubated in a shaking water bath at 37° C. Two 0.5 ml aliquots were then taken from each flask and cell pellets were collected by centrifugation. The pellets were solubilized with Protosol (NEN) and radioactivity determined by liquid scintillation spectrometry.
The concentration of compound required to inhibit ^14 C-AP accumulation in the stimulated parietal cell by 50% (IC50) was determined.

[2] = system: Mouse osteoblastic-line cells (MC3T3-El); assay: Mouse Osteoblast-line Cell Proliferation (3H-thymidine); format: cell-based; conditions: 0.1% FBS
Method: Pharmacology of the Ethenesulfonyl Fluoride Compounds--In Vitro Mouse Osteoblast-line Cell Proliferation
Reagents: Mouse osteoblastic-line cells (MC3T3-El) were plated in Dulbeccos Modified Eagles Medium (DMEM) with 25 mM Hepes Buffer, L-Glutamine, D-Glucose(4.5 gm/1) supplemented with 10% fetal bovine sera, Penicillin (100 units/ml) and Streptomycin ([…]) (Penicillin-Streptomycin liquid) and sodium pyruvate (10 μM final concentration). ^3 H-Thymidine (6.7 Ci/mmole) was diluted in DMEM media without FBS and filter sterilized. An aliquot of this solution was delivered to each culture well to a final concentration of ^3 H-thymidine of 0.4 μCi per well (2 μCi/ml).
Test Preparations: Solutions of the test compound were made on the day before incubation. These compounds were solubilized in either ethanol or DMSO at a concentration of 100 mM containing 0.1% FBS. The solutions were filter sterilized and then sterile serial dilutions were performed with DMEM media containing 0.1% FBS.
Osteoblast line cells were plated into 96 well culture plates, 1600 cells in 100 μL per well in DMEM with 25 mM Hepes Buffer, L-Glutamine, D-Glucose (4.5 gm/L) supplemented with 10% fetal bovine sera, Penicillin (100 units/mL) and Streptomycin (100 μg/mL) and sodium Pyruvate (10 μM final concentration). The media was replaced with DMEM containing no FBS and the cells were then incubated for an additional 24 hours. The following day, test compounds were added and screened at concentrations ranging from 10^-10 to 10^-5 M in the Presence of 0.1% FBS. The cells were then incubated an additional 20 hours. At this time 0.4 μ/Ci of 3H-thymidine was added to each culture well and the cells were incubated an additional 4 hours. The cells were then harvested with a Skatron Cell Harvester onto a glass fiber filter and washed with water, %5 trichloroacetic acid (TCA) and then 95% ethanol. The filters were then processed and counted on the LKB beta plate scintillation counter.

[3] = 14C-AP accumulation stimulated by dibutyryl cAMP, read-out: IC50 (dbcAMP)
[4] = 14C-AP accumulation stimulated by histamine, read-out: IC50 (H)

Row | SMILES | IC50 [1, 3] | IC50 [1, 4] | Mouse Osteoblast-line Cell Proliferation [Expressed as a Percent of Control] ([2]; 0.001 μM) | Mouse Osteoblast-line Cell Proliferation [Expressed as a Percent of Control] ([2]; 0.01 μM) | Mouse Osteoblast-line Cell Proliferation [Expressed as a Percent of Control] ([2]; 0.1 μM) | Mouse Osteoblast-line Cell Proliferation [Expressed as a Percent of Control] ([2]; 1.0 μM) | Mouse Osteoblast-line Cell Proliferation [Expressed as a Percent of Control] ([2]; 10 μM)
1 | O=S(=O)(CCNc1ccc(Br)cc1)NCCCOc1cccc(CN2CCCCC2)c1 [Example 5] | 860 nM | 370 nM | – | – | – | – | –
2 | O=S(=O)(CCNc1ccccc1)NCCCOc1cccc(CN2CCCCC2)c1 [Example 6, 2-(Phenylamino)-N-[3-[3-(piperidinomethyl)phenoxy]propyl]ethanesulfonamide] | 10000 nM | 1000 nM | – | – | – | – | –
3 | CC(C)Oc1ccc(NCCS(=O)(=O)NCCCOc2cccc(CN3CCCCC3)c2)cc1 [Example 7, 2-[[4-(1-Methylethony)Phenyl]amino]-N-[3-[3-(piperidinomethyl)Phenoxy]propyl]ethanesulfonamide] | 2000 nM | 840 nM | – | – | – | – | –
4 | CCCCCOc1ccc(NCCS(=O)(=O)NCCCOc2cccc(CN3CCCCC3)c2)cc1 [Example 8, 2-[(4-Pentoxyphenyl)amino]-N-[3-[3-(piperidinomethyl)phenoxy]propyl]ethanesulfonamide] | 370 nM | 330 nM | – | – | – | – | –
5 | CCOC(=O)c1ccc(NCCS(=O)(=O)F)cc1 [Example 16] | – | – | 132.8% of Control | 142.1% of Control | 127.5% of Control | 136.5% of Control | 154.7% of Control
6 | COc1ccc(NCCS(=O)(=O)F)cc1 [Example 17, Monohydrochloride] | – | – | 165.5% of Control | 148.9% of Control | 129.1% of Control | 115.9% of Control | 108.8% of Control
7 | O=S(=O)(F)CCNc1ccccc1 [Example 18, Monohydrochloride] | – | – | 132.6% of Control | 125.6% of Control | 108.1% of Control | 93.1% of Control | 95.9% of Control
8 | CCCCc1ccc(NCCS(=O)(=O)F)cc1 [Example 19, Monohydrochloride] | – | – | 109.0% of Control | 143.3% of Control | 159.8% of Control | 97.4% of Control | 115.7% of Control
9 | O=S(=O)(F)CCNc1ccc(F)cc1 [Example 20, Monohydrochloride] | – | – | 133.4% of Control | 111.8% of Control | 110.2% of Control | 116.9% of Control | 112.3% of Control
10 | Cc1ccc(NCCS(=O)(=O)F)cc1 [Example 21] | – | – | 131.5% of Control | 132.0% of Control | 126.6% of Control | 119.9% of Control | 111.8% of Control
11 | COc1ccc(NCCS(=O)(=O)F)cc1OC [Example 22, Monohydrochloride] | – | – | 143.6% of Control | 133.6% of Control | 116.4% of Control | 113.5% of Control | 106.7% of Control
12 | O=S(=O)(F)CCNc1ccc(C(F)(F)F)cc1 [Example 23] | – | – | 108.1% of Control | 97.9% of Control | 107.3% of Control | 120.8% of Control | 111.7% of Control
13 | COc1ccc(CCN(C)CCS(=O)(=O)F)cc1OC [Example 24, N-[2-(Fluorosulfonyl)ethyl]-3,4-dimethoxy-N-methylphenethylamine] | – | – | 150.4% of Control | 143.9% of Control | 153.5% of Control | 123.3% of Control | 106.7% of Control
14 | CCc1ccc(NCCS(=O)(=O)F)cc1 [Example 25, Monohydrochloride] | – | – | 139.4% of Control | 123.3% of Control | 100.9% of Control | 110.6% of Control | 90.0% of Control
15 | CC(C)(C)c1ccc(NCCS(=O)(=O)F)cc1 [Example 26, Hydrate] | – | – | 152.8% of Control | 165.7% of Control | 89.9% of Control | 102.7% of Control | 93.2% of Control
16 | CC(C)c1ccc(NCCS(=O)(=O)F)cc1 [Example 27, Hydrate] | – | – | 137.2% of Control | 130.0% of Control | 106.9% of Control | 110.8% of Control | 97.7% of Control
